Test results as given in patent US9499517B2, “Substituted prolines / piperidines as orexin receptor antagonists” (Eolas Therapeutics, Inc., priority 2012, dated 2016).
Where two headings read alike, the source gives them in different places. One block for each molecule: values may come before it.

Key:
CYP3A4 = biological target: T1, CYP3A4 (Homo sapiens, UniProt P08684); assay: Cytochrome P450 inhibition assay: midazolam hydroxylation to 1'-hydroxymidazolam in human liver microsomes, with or without 30 min pre-incubation; type: in vitro ADME; details: human, human liver microsomes, probe midazolam, 10 μM test compound; for inhibition at 30 min, 10 µM: 30 min (time-dependent inhibition), read-out: CYP3A4 % inh (10 μM, 30 min); for inhibition at 5 min, 10 µM: read-out: CYP3A4 % inh (10 μM, 5 min)
T1 construct: pre-incubated with human liver microsomes and NADPH for 30 minutes; from tissue; host or cells: human liver microsomes
T1 sequence (P08684 whole entry): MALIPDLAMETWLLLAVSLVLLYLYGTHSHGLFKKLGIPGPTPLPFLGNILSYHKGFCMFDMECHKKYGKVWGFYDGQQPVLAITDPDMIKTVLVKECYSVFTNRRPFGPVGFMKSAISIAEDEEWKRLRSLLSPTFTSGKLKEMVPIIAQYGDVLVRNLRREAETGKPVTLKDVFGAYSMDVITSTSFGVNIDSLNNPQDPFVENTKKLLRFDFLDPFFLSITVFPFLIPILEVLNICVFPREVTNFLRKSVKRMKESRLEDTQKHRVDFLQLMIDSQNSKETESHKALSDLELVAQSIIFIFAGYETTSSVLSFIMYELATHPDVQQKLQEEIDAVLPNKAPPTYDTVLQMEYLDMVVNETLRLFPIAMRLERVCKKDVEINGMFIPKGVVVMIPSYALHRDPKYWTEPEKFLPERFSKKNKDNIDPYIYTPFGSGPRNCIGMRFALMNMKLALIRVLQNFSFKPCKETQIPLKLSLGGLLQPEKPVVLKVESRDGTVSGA
Method: (§1) Cytochrome P450 Inhibition Assay.
(§2) Compounds were tested for the potential to induce drug-drug interactions by inhibition of the cytochrome P450 3A4 isoform. The assay evaluated the metabolism of a specific marker substrate (CYP3A4, midazolam hydroxylation to 1′-hydroxymidazolam) in the presence or absence of 10 μM test compound. […] A specific inhibitor for the isoform was included in each run to validate the system. An appropriate positive control inhibitor was used. Mechanism-based inhibition was investigated where warranted using a classical method. […] The percent inhibition of the pre-incubated and non-pre-incubated samples were compared as a preliminary evaluation of time-dependent inhibition.

[1] = biological target: T2, cytochrome P450 3A4 isoform (Homo sapiens, UniProt P08684); assay: as above; type: in vitro ADME; details: relative to Examples 112 and 114 (Table 4)
T2 construct: pre-incubated with human liver microsomes and NADPH for 30 minutes; from tissue; host or cells: human liver microsomes
T2 sequence (P08684 whole entry, canonical isoform): as the sequence (P08684 whole entry) above
Method: as §1, §2

OX1 = biological target: T3, OX1 (Homo sapiens, UniProt O43613); assay: Orexin receptor cell-based functional assay: [Ca2+]i by FLIPR in CHO-OX1 cells, antagonism of EC90 of OXA
T3 construct: expressed in transfected cells; host or cells: CHO (CHO-OX1, kept under G418 or Blasticidin selection)
T3 sequence (O43613 1-425): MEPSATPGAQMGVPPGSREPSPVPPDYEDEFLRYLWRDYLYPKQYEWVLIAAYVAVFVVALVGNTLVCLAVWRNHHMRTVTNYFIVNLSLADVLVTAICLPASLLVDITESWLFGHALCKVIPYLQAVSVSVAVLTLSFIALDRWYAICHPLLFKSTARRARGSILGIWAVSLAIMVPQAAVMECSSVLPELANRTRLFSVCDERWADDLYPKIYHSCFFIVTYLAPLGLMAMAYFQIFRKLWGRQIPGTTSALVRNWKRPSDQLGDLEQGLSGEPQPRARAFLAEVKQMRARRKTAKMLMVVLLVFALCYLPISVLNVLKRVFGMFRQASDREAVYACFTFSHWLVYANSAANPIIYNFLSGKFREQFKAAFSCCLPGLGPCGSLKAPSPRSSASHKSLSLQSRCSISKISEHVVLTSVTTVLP
Method: Orexin Receptor Cell-based Functional Assay.
Measurement of [Ca^2+]i using a FLIPR: CHO—OX1 or CHO—OX2 cells are seeded into black-walled clear-base 384-well plates (Costar) at a density of 20,000 cells per well in F12-K medium supplemented with 10% FBS and selection antibiotic (500 ug/ml G418 or 15 ug/ml Blasticidin) and cultured overnight. The cells are incubated with equal volume of calcium 4 loading buffer (Molecular Devices, Inc.) containing 2.5 mM probenecid at 37° C. for 30 min, followed by putative OX1 or OX2 receptor antagonists (dose-range 0.1 nM-10 μM) for another 30 min.

mice [2] = assay: Food self-administration (lever press for food pellets) in WT and Hcrt-R1 KO mice; type: in vivo; details: systemic administration 30 min prior to the session
mice [3] = assay: Nicotine self-administration assay (IV nicotine) in WT, Hcrt-R1 KO and virally-rescued mice; type: in vivo
Excerpt: Nicotine Self-Administration Assay
Development of Animal Subjects.
To generate Hcrt-R1^+/+ and […] mice, breeding pairs of male and female Hcrt-R1^+/− mice that were backcrossed >10 generations on a C57BL/6 background were obtained from Jackson Laboratory (Bar Harbor, Me.). For all experiments, mice weighing 25-35 g were housed in groups of 2-3 per cage, in a temperature-controlled vivarium under a reversed 12-h light/dark cycle (lights off at 8 am). Food and water were provided ad libitum until behavioral training commenced. During training, mice were food-restricted to maintain ˜85-90% of their free-feeding body weight. Behavioral testing occurred during the dark portion of the light/dark cycle between the hours of 9 am-1 pm, during the early portion of the dark phase of the cycle. All procedures were conducted in strict adherence with the National Institutes of Health Guide for the Care and Use of Laboratory Animals and were approved by the Institutional Animal Care and Use Committee of The Scripps Research Institute.
Mice were anesthetized by inhalation of 1-3% isoflurane in oxygen and silastic catheters were inserted into the jugular veins. […] During the TO period, responding on the lever was recorded but without scheduled consequence. […]

[4] = Table 2A, bioactivity with respect to OX1, CHO-OX1 cells, FLIPR, read-out: OX1

inhibition at 30 min, 10 µM (CYP3A4): 41%
Compound: C[C@@H]1CCCN(C(=O)c2c(F)cccc2-n2nccn2)[C@@H]1CNc1ncc(C(F)(F)F)cn1 [Compound A259, (2-fluoro-6-(2H-1,2,3-triazol-2-yl)phenyl)((2S,3R)-3-methyl-2-(((5-(trifluoromethyl)pyrimidin-2-yl)amino)methyl)piperidin-1-yl)methanone]

inhibition of CYP3A4 [1]: reduced inhibition of CYP3A4
inhibition at 30 min, 10 µM (CYP3A4): 59%
Compound: C[C@@H]1CCCN(C(=O)c2cc(Cl)ccc2-c2ncccn2)[C@@H]1CNc1ncc(C(F)(F)F)cn1 [Example A201, (5-Chloro-2-(pyrimidin-2-yl)phenyl)((2S,3R)-3-methyl-2-(((5-(trifluoromethyl)pyrimidin-2-yl)amino)methyl)piperidin-1-yl)methanone]

IC50 (OX1; Table 5, read-out: OX1 IC50): 137 nM
Compound: Cc1nc(C(=O)N2CCCC(C)(C)C2CNc2ncc(C(F)(F)F)cn2)c(-c2ccc(F)cc2)s1 (centres unmarked) [SR-12364, reference compound]

IC50 (OX1; [4]): 100 nM
Compound: Cc1ccc(-n2nccn2)c(C(=O)N2CCC[C@@H](C)[C@H]2CNc2ncc(C#N)cc2F)n1 [Example A193, 5-Fluoro-6-((((2S,3R)-3-methyl-1-(6-methyl-3-(2H-1,2,3-triazol-2-yl)picolinoyl)piperidin-2-yl)methyl)amino)nicotinonitrile]

inhibition of CYP3A4 [1]: reduced inhibition of CYP3A4
inhibition at 30 min, 10 µM (CYP3A4): 52%
Compound: C[C@@H]1CCCN(C(=O)c2cc(F)ccc2-n2nccn2)[C@@H]1CNc1ncc(C(F)(F)F)cn1 [Example A207, (5-Fluoro-2-(2H-1,2,3-triazol-2-yl)phenyl)((2S,3R)-3-methyl-2-(((5-(trifluoromethyl)pyrimidin-2-yl)amino)methyl)piperidin-1-yl)methanone]

Compound: Cc1nc(C(=O)N2CCC[C@@H](C)[C@H]2CNc2ccc(C(F)(F)F)cn2)c(-c2ccc(F)cc2)s1 (racemic) [Example 11, rac-(5-(4-fluorophenyl)-2-methylthiazol-4-yl)((2S,3R)-3-methyl-2-(((5-(trifluoromethyl)pyridin-2-yl)amino)methyl)piperidin-1-yl)methanone]
food self-administration (SA) (mice [2]): no effect on food SA

IC50 (OX1; [4]): 61 nM
Compound: Cc1ccc(-n2nccn2)c(C(=O)N2CCC[C@@H](C)[C@H]2CNc2nnc(C(F)(F)F)s2)c1 [Example A102, ((2S,3R)-3-Methyl-2-(((5-(trifluoromethyl)-1,3,4-thiadiazol-2-yl)amino)methyl)piperidin-1-yl)(5-methyl-2-(2H-1,2,3-triazol-2-yl)phenyl)methanone]

IC50 (OX1; Table 5, read-out: OX1 IC50): 13 nM
Compound: Cc1nc(C(=O)N2CCCCC2CNc2ncc(C(F)(F)F)cn2)c(-c2ccc(F)cc2)s1 (centres unmarked) [SR-12376, reference compound]

IC50 (OX1; Table 2, IC50 bioactivity, CHO-OX1 cells, FLIPR, read-out: OX1): 2000 nM
Compound: CC(=O)NC1CCC(CNC(=O)c2cccc3cccnc23)N(C(=O)c2ccccc2-c2ccccc2)C1 (racemic) [Example 43, rac-N-((5-acetamido-1-(biphenylcarbonyl)piperidin-2-yl)methyl)quinoline-8-carboxamide]

inhibition at 30 min, 10 µM (CYP3A4): 58%
Compound: C[C@@H]1CCCN(C(=O)c2cc(F)ccc2-c2ncccn2)[C@@H]1CNc1ncc(C(F)(F)F)cn1 [Compound A227, (5-Fluoro-2-(pyrimidin-2-yl)phenyl)((2S,3R)-3-methyl-2-(((5-(trifluoromethyl)pyrimidin-2-yl)amino)methyl)piperidin-1-yl)methanone]

IC50 (OX1; Table 4, read-out: OX1 IC50): 42 nM
inhibition at 5 min, 10 µM (CYP3A4): 72%
inhibition at 30 min, 10 µM (CYP3A4): 94%
Compound: Cc1ccc(-c2ncccn2)c(C(=O)N2CCC[C@@H](C)[C@H]2CNc2ccc(C(F)(F)F)cn2)c1 (racemic) [Example 112, rac-((2S,3R)-3-methyl-2-(((5-(trifluoromethyl)pyridin-2-yl)amino)methyl)piperidin-1-yl)(5-methyl-2-(pyrimidin-2-yl)phenyl)methanone]

inhibition at 5 min, 10 µM (CYP3A4): 78%
inhibition at 30 min, 10 µM (CYP3A4): 93%
Compound: Cc1ccc(-n2nccn2)c(C(=O)N2CCC[C@@H](C)[C@H]2CNc2ccc(C(F)(F)F)cn2)c1 (racemic) [Example 114, rac-((2S,3R)-3-methyl-2-(((5-(trifluoromethyl)pyridin-2-yl)amino)methyl)piperidin-1-yl)(5-methyl-2-(2H-1,2,3-triazol-2-yl)phenyl)methanone]

Compound: CC1(C)OC[C@H](NC(=O)Nc2ccc(Br)cc2Br)[C@H](c2ccccc2)O1 [JNJ 10397049]
nicotine self-administration (SA) (mice [3]; KO mice): marginal decrease in nicotine SA
nicotine self-administration (SA) (mice [3]; doses 0, 5 and 10 mg/kg, WT mice): no effect on nicotine SA
food self-administration (SA) (mice [2]): no effect on SA of food pellets
